From the NIST ThermoML archive (doi:10.1021/je3009599)

Conditions: Liquid

CCCC(=O)OCC [ethyl butanoate]
Conditions	vapor or sublimation pressure [kPa]
348.97 K	22.5
351.83 K	25
354.39 K	27.5
356.76 K	30.03
359 K	32.51
361.08 K	35.02
363.04 K	37.52
364.86 K	40.04
366.66 K	42.51
368.24 K	45.03
369.87 K	47.51
371.44 K	50.01
372.86 K	52.51
374.31 K	55.03
375.67 K	57.52
376.95 K	60
379.48 K	65.03
380.68 K	67.53
381.82 K	70
382.96 K	72.52
384.07 K	75.01
385.13 K	77.51
386.19 K	79.99
387.22 K	82.52
388.21 K	85.02
389.17 K	87.54
390.12 K	89.98
391.06 K	92.53
391.95 K	94.92
392.83 K	97.45
393.71 K	100.01
394.13 K	101.31

CCCC(C)O (stereo not given) [pentan-2-ol]
Conditions	vapor or sublimation pressure [kPa]
354.47 K	22.55
356.6 K	25.05
358.86 K	27.47
360.81 K	30.03
362.76 K	32.55
364.38 K	35.08
366 K	37.56
367.49 K	40.03
369.03 K	42.51
370.52 K	45.07
371.77 K	47.54
373.05 K	50.02
374.33 K	52.58
375.51 K	55.03
376.68 K	57.48
377.81 K	60.03
378.95 K	62.45
379.97 K	65.05
381.01 K	67.58
381.96 K	70.03
382.9 K	72.56
383.88 K	75.05
384.79 K	77.59
385.64 K	80.03
386.56 K	82.58
387.35 K	85.01
388.19 K	87.55
389 K	90.09
389.76 K	92.52
390.55 K	95.02
391.31 K	97.55
392.07 K	100.03
392.26 K	101.38
